Data taken from publication PMC12794336, “Unconventional chalcogen-containing azolylidene metal complexes as potential anticancer therapeutics” (Chemical Science, 2025).

Columns and labels:
[1] = test system: non-cancerous human embryonic kidney HEK293T cells; assay: Cytotoxicity, PrestoBlue assay, HEK293T; assay type: cell-based; conditions: 72 h, PrestoBlue; read-out: IC50 (µM) after 72 h, HEK293T
Description: (§1) counterpart, A2780cis, were procured from the European Collection of Cell
(§2) (ThermoFisher, USA) base medium supplemented with 10% Foetal Bovine
(§3) Serum (FBS; Sigma, Germany) and 1% of Penicillin-Streptomycin
(§4) (ThermoFisher, USA). Additionally, A2780cis cell line was cultured in the
(§5) drug. The human embryonic kidney cell line, HEK293T, and HeLa cell line were
(§6) obtained from American Type Culture Collection (ATCC, USA) and were cultured
(§7) in DMEM GlutaMAX (ThermoFisher, USA) base medium, supplemented with
(§8) 10% FBS and 1% of Penicillin-Streptomycin. All cell lines were maintained in a
(§9) humidified incubator at37 °C and 5% CO2.
(§10) 4.2. Cytotoxicity studies
(§11) cells/mL (A2780cis and HEK293T) was dispensed into flat bottom 96-well plates
(§12) and allowed to attach overnight. On the next day, 10 mM stock solutions of the
(§13) tested compounds were prepared in DMSO, then diluted with media to the final
(§14) concentration range of 0 - 100 µM and applied to the cells; 0.1% DMSO final
(§15) solution and 10 µM final concentration gambogic acid were used as negative and
(§16) positive controls, respectively. After 72 h incubation in a humidified incubator
(§17) under 5% CO2 at 37 °C, PrestoBlue™ cell viability reagent (Cat. No. A13262,
(§18) Invitrogen, USA) was added to cultures at a 1:10 ratio according to the
(§19) manufacturer instructions, and samples were incubated for 1.5 h. Fluorescence
(§20) at 560/590 nm was detected with Tecan Infinite 500 microplate reader (Tecan,
(§21) Switzerland). Three wells were assessed for each concentration of the tested
(§22) compounds and three independent experiments were performed. Non-linear
(§23) regression and IC50 value calculation were performed in GraphPad Prism 9 using
(§24) the build-in function “Dose response- Inhibition”.

[2] = n-octanol/water; cited from earlier work
[3] = test system: A2780 ovarian cancer cell line; assay: Cytotoxicity, PrestoBlue assay, A2780; assay type: cell-based, human; conditions: 72 h, PrestoBlue; read-out: IC50 (µM) after 72 h, A2780
Description: as §1, §2, §3, §4, §5, §6, §7, §8, §9, §10, §11, §12, §13, §14, §15, §16, §17, §18, §19, §20, §21, §22, §23, §24

[4] = test system: A2780cis cells with acquired resistance to cisplatin; assay: Cytotoxicity, PrestoBlue assay, A2780cis; assay type: cell-based, human; conditions: 72 h, PrestoBlue; read-out: IC50 (µM) after 72 h, A2780cis
Description: as §1, §2, §3, §4, §5, §6, §7, §8, §9, §10, §11, §12, §13, §14, §15, §16, §17, §18, §19, §20, §21, §22, §23, §24

[5] = test system: A2780, A2780cis and HEK293T cell lines; assay: Cytotoxicity stated jointly for all three cell lines; assay type: cell-based, human; conditions: HEK293T together, 72 h
Description: as §1, §2, §3, §4, §5, §6, §7, §8, §9, §10, §11, §12, §13, §14, §15, §16
under 5% CO2 at 37 °C, PrestoBlue™ cell viability reagent (Cat. No. A13262, […]
as §19, §20
Switzerland). Three wells were assessed for each concentration of the tested […]

[6] = set-up: method as in PMID 21082862; conditions: cell line not stated; read-out: Cytotoxicity reported in the literature; cited from earlier work

SMILES | IC50 [1] [µM] | logPOW [2] | IC50 [3] [µM] | IC50 [4] [µM] | IC50 [5] [µM] | IC50 [6] [µM]
Cc1ccc(C(C)C)cc1.[Cl][Ru]([Cl])[PH]12CN3CN(CN(C3)C1)C2 [RAPTA-C, reference compound] | > 100 | −1.8 (ref. [64]) | > 100 | > 100 | > 100 | –
CCn1[c]([Au-][Cl])[n+](CC)c2ccccc21 [same complex bearing a chlorido ligand] | – | – | – | – | – | 6.4 ± 2
